Data from ChEMBL document CHEMBL3745666, “Syntheses and anti-inflammatory activity of azamollugin derivatives” (Bioorg Med Chem Lett, 2016).
pIC50: −log10 of the molar value.

Test system: RAW264.7
Assay: Antiinflammatory activity in mouse RAW264.7 cells assessed as inhibition of LPS-induced NO production compound pretreated for 1 hr followed by addition of 100 ng/ml LPS for 24 hrs by griess method
Format: functional, cell-based

Row | Structure (SMILES) | pIC50 | inhibition
1 | COC(=O)C1=C2C=CC(C)(C)N=C2c2ccccc2C1=O | 6.47 | Dose-dependent effect
2 | CNC(=N)NCCC[C@H](N)C(=O)O [TILARGININE] | 4.13 | –
3 | COC(=O)c1c(O)c2ccccc2c2ncccc12 | < 4.30 | –
4 | COC(=O)C1=C2C=CC(C)(C)OC2(O)c2ccccc2C1=O (stereo unspecified) | 5.89 | –
5 | COC(=O)c1c(O)c2ccccc2c2nc(C)ccc12 | < 4.30 | –
